{"source": "patent US20260209250A1", "about": "“CRYSTAL FORM OF KRAS G12D INHIBITOR AND PREPARATION METHOD THEREFOR” (priority 2022, published 2026)", "key": {"GP2d cells": {"system": "GP2d cells", "assay": "Inhibition of 3D proliferation of GP2d cells", "type": "cell-based", "conditions": "120 h, CellTiter-Glo 3D", "method": "(§1) The inhibitory effect of compound 1-p1 on the KRAS target was evaluated by assessing the inhibitory effect of compound 1-p1 on the 3D proliferation of GP2d and AGS cells.\n(§2) GP2d cells (Nanjing Cobioer, CBP60010) were cultured in a complete culture medium, namely a DMEM/high glucose culture medium (Hyclone, SH30243.01) containing 10% fetal bovine serum (Corning, 35-076-CV). On the first day of the experiment, the GP2d cells were seeded into a 96-well low-adsorption plate (Corning, CLS7007-24EA) with a complete culture medium at a density of 1000 cells/well, with each well containing 90 μL of a cell suspension. The plate was centrifuged at 2000 rpm for 5 min at room temperature and then incubated overnight in a 5% CO2 cell incubator at 37° C.\n(§3) The next day, the test compound, serially diluted in a complete culture medium, was added at 10 μL/well. The final concentrations of the compound for GP2d cells were 9 concentration points obtained by 3-fold serial dilution from 1 μM, and the final concentrations of the compound for AGS cells were 9 concentration points obtained by 3-fold serial dilution from 10 μM. A blank control containing 0.5% DMSO was set for both types of cells. […] The luminescence signal values were obtained using a multi-mode microplate reader (PerkinElmer, ENVISION).\n(§4) The IC50 values for the inhibitory activity of the compound were calculated using Graphpad Prism software."}, "[1]": {"system": "ERK phosphorylation in AGS cells", "assay": "Inhibition of ERK phosphorylation in AGS cells (HTRF method)", "type": "cell-based", "conditions": "Homo sapiens, 1 h incubation, phosphorylated ERK/total ERK ratio", "method": "In the experiment, the inhibitory effect of the compound on the KRAS target was evaluated by assessing the inhibitory effect of compound 1-p1 on ERK phosphorylation in cells and based on the IC50 value.\nAGS cells (Nanjing Cobioer, CBP60476) were cultured in an RPMI1640 (Hyclone, SH30809.01) complete culture medium containing 10% fetal bovine serum. On the first day of the experiment, the AGS cells were seeded into a 96-well plate with a complete culture medium at a density of 40000 cells/well, with each well containing 190 μL of a cell suspension. The plate was incubated overnight in a 5% CO2 cell incubator at 37° C.\nThe next day, the test compound, serially diluted in a complete culture medium, was added at 10 μL/well. The final concentrations of the compound were 9 concentration points obtained by 5-fold serial dilution from 10 μM. A blank control containing 0.5% DMSO was set. The plate was incubated in a 5% CO2 cell incubator at 37° C. for 1 h. […]\nOn the third day, the fluorescence values at an excitation wavelength of 337 nm and emission wavelengths of 665 nm and 620 nm were obtained using an ENVISION multi-mode microplate reader (PerkinElmer, ENVISION).\nThe IC50 value for the inhibitory activity of the compound was calculated using Graphpad Prism software based on the compound concentration and the phosphorylated ERK/total ERK ratio."}, "AGS cells": {"system": "AGS cells", "assay": "Inhibition of 3D proliferation of AGS cells", "type": "cell-based", "conditions": "Homo sapiens, 120 h, CellTiter-Glo 3D", "method": "as §1\nas §2, with “AGS” for “GP2d”, “CBP60476)” for “CBP60010)”, “an RPMI1640” for “a DMEM/high glucose”, “SH30809.01)” for “SH30243.01)”\nas §3, §4"}, "[2]": {"assay": "Crystal form stability study (influencing factor experiments)", "type": "physicochemical", "method": "Samples of the crystal forms A, B, C, I, J, and K of the compound represented by formula (I) were taken, spread in open containers, and left to stand under conditions of light exposure (4500 Lux), high temperatures (40° C. and 60° C.), and high humidities (RH 75% and RH 92.5%) for 30 days to investigate their stability, and the results are shown in Table 16."}, "[3]": {"assay": "Long-term/accelerated stability", "type": "physicochemical"}, "[4]": {"conditions": "40° C., 10 days, open container"}, "[5]": {"conditions": "40° C., 30 days, open container"}, "[6]": {"conditions": "60° C., 10 days, open container"}, "[7]": {"conditions": "60° C., 30 days, open container"}, "[8]": {"conditions": "75% RH, 10 days, open container"}, "[9]": {"conditions": "75% RH, 30 days, open container"}, "[10]": {"conditions": "92.5% RH, 5 days, open container"}, "[11]": {"conditions": "92.5% RH, 10 days, open container"}, "[12]": {"conditions": "92.5% RH, 30 days, open container"}, "[13]": {"conditions": "light exposure (4500 Lux), 5 days, open container"}, "[14]": {"conditions": "light exposure (4500 Lux), 10 days, open container"}, "[15]": {"conditions": "light exposure (4500 Lux), 30 days, open container"}}}
{"smiles": "CCc1c(F)ccc2cc(O)cc(-c3nc4c5c(nc(OC[C@@]67CCCN6C[C@H](F)C7)nc5c3F)N3C[C@H]5CC[C@H](N5)[C@H]3CO4)c12", "note": "[Compound 1-p1, 5-Ethyl-6-fluoro-4-((5aS,6S,9R)-1-fluoro-12-(((2R,7aS)-2-fluorotetrahydro-1H-pyrrolizin-7a(5H)-yl)methoxy)-5a,6,7,8,9,10-hexahydro-5H-4-oxa-3,10a,11,13,14-pentaaza-6,9-methanonaphtho[1,8-ab]heptalen-2-yl)naphthalen-2-ol]", "values": [{"measurement": "IC50", "setting": "GP2d cells", "result": 900, "unit": "pM"}, {"measurement": "IC50", "setting": "[1]", "result": 400, "unit": "pM"}, {"measurement": "IC50", "setting": "AGS cells", "result": 5800, "unit": "pM"}]}
{"smiles": "CCc1c(F)ccc2cc(O)cc(-c3nc4c5c(nc(OC[C@@]67CCCN6C[C@H](F)C7)nc5c3F)N3C[C@H]5CC[C@H](N5)[C@H]3CO4)c12", "note": "[Crystal form C, 5-Ethyl-6-fluoro-4-((5aS,6S,9R)-1-fluoro-12-(((2R,7aS)-2-fluorotetrahydro-1H-pyrrolizin-7a(5H)-yl)methoxy)-5a,6,7,8,9,10-hexahydro-5H-4-oxa-3,10a,11,13,14-pentaaza-6,9-methanonaphtho[1,8-ab]heptalen-2-yl)naphthalen-2-ol]", "values": [{"measurement": "Color and state", "setting": "[2]; 40° C., 5 days, open container", "result": "Off-white solid"}, {"measurement": "Crystal form", "setting": "[2]; 40° C., 5 days, open container", "result": "Did not change"}, {"measurement": "Purity %", "setting": "[2]; 40° C., 5 days, open container", "result": 99.3, "unit": "%"}, {"measurement": "Color and state", "setting": "[2]; [4]", "result": "Off-white solid"}, {"measurement": "Crystal form", "setting": "[2]; [4]", "result": "Did not change"}, {"measurement": "Purity %", "setting": "[2]; [4]", "result": 99.3, "unit": "%"}, {"measurement": "Color and state", "setting": "[2]; [5]", "result": "Off-white solid"}, {"measurement": "Crystal form", "setting": "[2]; [5]", "result": "Did not change"}, {"measurement": "Purity %", "setting": "[2]; [5]", "result": 98.5, "unit": "%"}, {"measurement": "Color and state", "setting": "[2]; 60° C., 5 days, open container", "result": "Off-white solid"}, {"measurement": "Crystal form", "setting": "[2]; 60° C., 5 days, open container", "result": "Did not change"}, {"measurement": "Purity %", "setting": "[2]; 60° C., 5 days, open container", "result": 99.0, "unit": "%"}, {"measurement": "Color and state", "setting": "[2]; [6]", "result": "Off-white solid"}, {"measurement": "Crystal form", "setting": "[2]; [6]", "result": "Did not change"}, {"measurement": "Purity %", "setting": "[2]; [6]", "result": 99.0, "unit": "%"}, {"measurement": "Color and state", "setting": "[2]; [7]", "result": "Off-white solid"}, {"measurement": "Crystal form", "setting": "[2]; [7]", "result": "Did not change"}, {"measurement": "Purity %", "setting": "[2]; [7]", "result": 97.9, "unit": "%"}, {"measurement": "Color and state", "setting": "[2]; 75% RH, 5 days, open container", "result": "Off-white solid"}, {"measurement": "Crystal form", "setting": "[2]; 75% RH, 5 days, open container", "result": "Did not change"}, {"measurement": "Purity %", "setting": "[2]; 75% RH, 5 days, open container", "result": 99.6, "unit": "%"}, {"measurement": "Color and state", "setting": "[2]; [8]", "result": "Off-white solid"}, {"measurement": "Crystal form", "setting": "[2]; [8]", "result": "Did not change"}, {"measurement": "Purity %", "setting": "[2]; [8]", "result": 99.6, "unit": "%"}, {"measurement": "Color and state", "setting": "[2]; [9]", "result": "Off-white solid"}, {"measurement": "Crystal form", "setting": "[2]; [9]", "result": "Did not change"}, {"measurement": "Purity %", "setting": "[2]; [9]", "result": 99.5, "unit": "%"}, {"measurement": "Color and state", "setting": "[2]; [10]", "result": "Off-white solid"}, {"measurement": "Crystal form", "setting": "[2]; [10]", "result": "Did not change"}, {"measurement": "Purity %", "setting": "[2]; [10]", "result": 99.6, "unit": "%"}, {"measurement": "Color and state", "setting": "[2]; [11]", "result": "Off-white solid"}, {"measurement": "Crystal form", "setting": "[2]; [11]", "result": "Did not change"}, {"measurement": "Purity %", "setting": "[2]; [11]", "result": 99.6, "unit": "%"}, {"measurement": "Color and state", "setting": "[2]; [12]", "result": "Off-white solid"}, {"measurement": "Crystal form", "setting": "[2]; [12]", "result": "Did not change"}, {"measurement": "Purity %", "setting": "[2]; [12]", "result": 99.4, "unit": "%"}, {"measurement": "Color and state", "setting": "[2]; Initial, 0 days", "result": "Off-white solid"}, {"measurement": "Purity %", "setting": "[2]; Initial, 0 days", "result": 99.7, "unit": "%"}, {"measurement": "Physical and chemical properties (conclusion of influencing factor experiments)", "setting": "[2]; high temperatures and high humidities for 30 days", "result": "good physical and chemical properties"}, {"measurement": "Color and state", "setting": "[2]; [13]", "result": "Off-white solid"}, {"measurement": "Crystal form", "setting": "[2]; [13]", "result": "Did not change"}, {"measurement": "Purity %", "setting": "[2]; [13]", "result": 99.2, "unit": "%"}, {"measurement": "Color and state", "setting": "[2]; [14]", "result": "Off-white solid"}, {"measurement": "Crystal form", "setting": "[2]; [14]", "result": "Did not change"}, {"measurement": "Purity %", "setting": "[2]; [14]", "result": 98.7, "unit": "%"}, {"measurement": "Color and state", "setting": "[2]; [15]", "result": "Pale yellow solid"}, {"measurement": "Crystal form", "setting": "[2]; [15]", "result": "Did not change"}, {"measurement": "Purity %", "setting": "[2]; [15]", "result": 97.9, "unit": "%"}, {"measurement": "Purity % 1 month", "setting": "[3]; 25° C./60% RH", "result": 99.7, "unit": "%"}, {"measurement": "Purity % 2 months", "setting": "[3]; 25° C./60% RH", "result": 99.6, "unit": "%"}, {"measurement": "Purity % 3 months", "setting": "[3]; 25° C./60% RH", "result": 99.6, "unit": "%"}, {"measurement": "Purity % Initial", "setting": "[3]; 25° C./60% RH", "result": 99.7, "unit": "%"}, {"measurement": "Purity % 1 month", "setting": "[3]; 40° C./75% RH", "result": 99.5, "unit": "%"}, {"measurement": "Purity % 2 months", "setting": "[3]; 40° C./75% RH", "result": 99.4, "unit": "%"}, {"measurement": "Purity % 3 months", "setting": "[3]; 40° C./75% RH", "result": 99.2, "unit": "%"}, {"measurement": "Purity % Initial", "setting": "[3]; 40° C./75% RH", "result": 99.7, "unit": "%"}]}
